Columns and labels:
Assay type in all cases: in vivo
Parameters in all cases: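 grade 0 to 5 of growth suppression where 5 is 90% or more and 0 below 10%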
[1] = system: Abutilon theophrasti medicus; assay: Herbicidal effects in upland field foliar treatment (Test Example 3); settings: criteria of Table 138; for herbicidal effect (index) on Abutilon theophrasti medicus: 1000 g active ingredient per hectare, 14th day after treatment; for herbicidal effects on Abutilon theophrasti medicus: 1000 g of the active ingredient per hectare, 14th day after the treatment, wettable powder
Experimental: (§1) Test Example 3 Test on Herbicidal Effects in Upland Field Foliar Treatment A 80-cm^2 plastic pot was filled with upland field soil. Seeds of Echinochloa crus-galli (L.) P. Beauv. var. crus-galli, Abutilon theophrasti medicus and Amaranthus viridis L. were sowed, and the plants were grown for two weeks in a greenhouse. A wettable powder formulation prepared according to Preparation Example 1 was diluted with water, and was sprayed with a small sprayer to perform foliar application over the entirety of plants from the upper side, in an amount equivalent to 1000 liters per hectare, such that 1000 g of the active ingredient per hectare was applied. Thereafter, the plants were grown in a greenhouse, and on the 14th day after the treatment, the herbicidal effects were investigated according to the criteria described in the Table 138 shown above.

Amaranthus viridis L. = assay: as above; settings: criteria of Table 138; for herbicidal effect (index) on Amaranthus viridis L.: 1000 g active ingredient per hectare, 14th day after treatment; for herbicidal effects on Amaranthus viridis L.: 1000 g of the active ingredient per hectare, 14th day after the treatment, wettable powder
Experimental: as §1

[2] = system: Echinochloa crus-galli (L.) P. Beauv. var. crus-galli; assay: as above; settings: criteria of Table 138; for herbicidal effect (index) on Echinochloa crus-galli (L.) P. Beauv. var. crus-galli: 1000 g active ingredient per hectare, 14th day after treatment; for herbicidal effects on Echinochloa crus-galli (L.) P. Beauv. var. crus-galli: 1000 g of the active ingredient per hectare, 14th day after the treatment, wettable powder
Experimental: as §1

[3] = system: Echinochloa oryzicola Vasing; assay: Herbicidal effects in paddy field soil treatment (Test Example 1); settings: paddy field soil treatment; 1000 g of the active ingredient per hectare; wettable powder added dropwise on water surface; 21st day after treatment
Method in brief: (§2)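 Sow seeds in puddled, leveled paddy soil; waterlog to 3 cm depth. On the following day apply water-diluted wettable powder onto the water surface (1000 g a.i./ha). Grow in greenhouse and assess herbicidal effect at day 21.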

[4] = system: Scirpus juncoides Roxb. var. ohwianus. T. Koyama; assay: as above; settings: paddy field soil treatment; 1000 g of the active ingredient per hectare; wettable powder added dropwise on water surface; 21st day after treatment
Method in brief: as §2

[5] = system: Monochoria vaginalis (Burm. f.) Presl var. plantaginea (Roxb.) Solms-Laub.; assay: as above; settings: paddy field soil treatment; 1000 g of the active ingredient per hectare; wettable powder added dropwise on water surface; 21st day after treatment
Method in brief: as §2

CSCCn1c(=O)c(C(=O)C2=C(O)CCCC2=O)nc2ccccc21 [Compound I-91]
herbicidal effect (index) on Abutilon theophrasti medicus [1]: 5 | herbicidal effect (index) on Amaranthus viridis L. (Amaranthus viridis L.): 5 | herbicidal effect (index) on Echinochloa crus-galli (L.) P. Beauv. var. crus-galli [2]: 5 | Herbicidal effects index, Echinochloa oryzicola Vasing [3]: 5 | Herbicidal effects index, Scirpus juncoides Roxb. var. ohwianus. T. Koyama [4]: 5 | Herbicidal effects index, Monochoria vaginalis (Burm. f.) Presl var. plantaginea (Roxb.) Solms-Laub. [5]: 5

CS(=O)(=O)CCn1c(=O)c(C(=O)C2=C(O)CCCC2=O)nc2ccccc21 [Compound I-92]
herbicidal effect (index) on Abutilon theophrasti medicus [1]: 5 | herbicidal effect (index) on Amaranthus viridis L. (Amaranthus viridis L.): 5 | herbicidal effect (index) on Echinochloa crus-galli (L.) P. Beauv. var. crus-galli [2]: 5 | Herbicidal effects index, Echinochloa oryzicola Vasing [3]: 4 | Herbicidal effects index, Scirpus juncoides Roxb. var. ohwianus. T. Koyama [4]: 5 | Herbicidal effects index, Monochoria vaginalis (Burm. f.) Presl var. plantaginea (Roxb.) Solms-Laub. [5]: 5

C#CCn1c(=O)c(C(=O)C2=C(O)CCCC2=O)nc2ccccc21 [I-35]
herbicidal effect (index) on Abutilon theophrasti medicus [1]: 5 | herbicidal effect (index) on Amaranthus viridis L. (Amaranthus viridis L.): 5 | herbicidal effect (index) on Echinochloa crus-galli (L.) P. Beauv. var. crus-galli [2]: 4 | Herbicidal effects index, Echinochloa oryzicola Vasing [3]: 5 | Herbicidal effects index, Scirpus juncoides Roxb. var. ohwianus. T. Koyama [4]: 5 | Herbicidal effects index, Monochoria vaginalis (Burm. f.) Presl var. plantaginea (Roxb.) Solms-Laub. [5]: 5

C[S+]([O-])CCOCn1c(=O)c(C(=O)C2=C(O)CCCC2=O)nc2ccccc21 (stereo not drawn) [I-67]
herbicidal effect (index) on Abutilon theophrasti medicus [1]: 5 | herbicidal effect (index) on Amaranthus viridis L. (Amaranthus viridis L.): 5 | herbicidal effect (index) on Echinochloa crus-galli (L.) P. Beauv. var. crus-galli [2]: 4 | Herbicidal effects index, Echinochloa oryzicola Vasing [3]: 4 | Herbicidal effects index, Scirpus juncoides Roxb. var. ohwianus. T. Koyama [4]: 5 | Herbicidal effects index, Monochoria vaginalis (Burm. f.) Presl var. plantaginea (Roxb.) Solms-Laub. [5]: 5

O=C1CCCC(O)=C1C(=O)c1nc2ccccc2n(Cc2ccccc2Cl)c1=O [I-111]
herbicidal effect (index) on Abutilon theophrasti medicus [1]: 5 | herbicidal effect (index) on Amaranthus viridis L. (Amaranthus viridis L.): 5 | herbicidal effect (index) on Echinochloa crus-galli (L.) P. Beauv. var. crus-galli [2]: 5 | Herbicidal effects index, Echinochloa oryzicola Vasing [3]: 5 | Herbicidal effects index, Scirpus juncoides Roxb. var. ohwianus. T. Koyama [4]: 5 | Herbicidal effects index, Monochoria vaginalis (Burm. f.) Presl var. plantaginea (Roxb.) Solms-Laub. [5]: 5

O=C1CCCC(O)=C1C(=O)c1nc2ccccc2n(Cc2cccc(Cl)c2)c1=O [I-112]
herbicidal effect (index) on Abutilon theophrasti medicus [1]: 5 | herbicidal effect (index) on Amaranthus viridis L. (Amaranthus viridis L.): 5 | herbicidal effect (index) on Echinochloa crus-galli (L.) P. Beauv. var. crus-galli [2]: 4 | Herbicidal effects index, Echinochloa oryzicola Vasing [3]: 5 | Herbicidal effects index, Scirpus juncoides Roxb. var. ohwianus. T. Koyama [4]: 5 | Herbicidal effects index, Monochoria vaginalis (Burm. f.) Presl var. plantaginea (Roxb.) Solms-Laub. [5]: 5

O=C1CCCC(O)=C1C(=O)c1nc2ccccc2n(C2CCS(=O)(=O)C2)c1=O (stereo not drawn) [I-137]
herbicidal effect (index) on Abutilon theophrasti medicus [1]: 5 | herbicidal effect (index) on Amaranthus viridis L. (Amaranthus viridis L.): 5 | herbicidal effect (index) on Echinochloa crus-galli (L.) P. Beauv. var. crus-galli [2]: 4 | Herbicidal effects index, Echinochloa oryzicola Vasing [3]: 5 | Herbicidal effects index, Scirpus juncoides Roxb. var. ohwianus. T. Koyama [4]: 5 | Herbicidal effects index, Monochoria vaginalis (Burm. f.) Presl var. plantaginea (Roxb.) Solms-Laub. [5]: 5

O=C1CCCC(O)=C1C(=O)c1nc2ccccc2n(-c2ccc(O)cc2)c1=O [II-51]
herbicidal effects on Abutilon theophrasti medicus [1]: 5 | herbicidal effects on Amaranthus viridis L. (Amaranthus viridis L.): 5 | herbicidal effects on Echinochloa crus-galli (L.) P. Beauv. var. crus-galli [2]: 4 | Herbicidal effects index, Echinochloa oryzicola Vasing [3]: 5 | Herbicidal effects index, Scirpus juncoides Roxb. var. ohwianus. T. Koyama [4]: 5 | Herbicidal effects index, Monochoria vaginalis (Burm. f.) Presl var. plantaginea (Roxb.) Solms-Laub. [5]: 5

CCCOc1cccc(-n2c(=O)c(C(=O)C3=C(O)CCCC3=O)nc3ccccc32)c1 [II-71]
herbicidal effects on Abutilon theophrasti medicus [1]: 5 | herbicidal effects on Amaranthus viridis L. (Amaranthus viridis L.): 5 | herbicidal effects on Echinochloa crus-galli (L.) P. Beauv. var. crus-galli [2]: 4 | Herbicidal effects index, Echinochloa oryzicola Vasing [3]: 4 | Herbicidal effects index, Scirpus juncoides Roxb. var. ohwianus. T. Koyama [4]: 5 | Herbicidal effects index, Monochoria vaginalis (Burm. f.) Presl var. plantaginea (Roxb.) Solms-Laub. [5]: 5

CC(C)Oc1cccc(-n2c(=O)c(C(=O)C3=C(O)CCCC3=O)nc3ccccc32)c1 [II-74]
herbicidal effects on Abutilon theophrasti medicus [1]: 4 | herbicidal effects on Amaranthus viridis L. (Amaranthus viridis L.): 4 | herbicidal effects on Echinochloa crus-galli (L.) P. Beauv. var. crus-galli [2]: 3 | Herbicidal effects index, Echinochloa oryzicola Vasing [3]: 5 | Herbicidal effects index, Scirpus juncoides Roxb. var. ohwianus. T. Koyama [4]: 5 | Herbicidal effects index, Monochoria vaginalis (Burm. f.) Presl var. plantaginea (Roxb.) Solms-Laub. [5]: 5

C#CCOc1ccc(-n2c(=O)c(C(=O)C3=C(O)CCCC3=O)nc3ccccc32)cc1 [II-84]
herbicidal effects on Abutilon theophrasti medicus [1]: 4 | herbicidal effects on Amaranthus viridis L. (Amaranthus viridis L.): 5 | herbicidal effects on Echinochloa crus-galli (L.) P. Beauv. var. crus-galli [2]: 4 | Herbicidal effects index, Echinochloa oryzicola Vasing [3]: 5 | Herbicidal effects index, Scirpus juncoides Roxb. var. ohwianus. T. Koyama [4]: 5 | Herbicidal effects index, Monochoria vaginalis (Burm. f.) Presl var. plantaginea (Roxb.) Solms-Laub. [5]: 5

O=C1CCCC(O)=C1C(=O)c1nc2ccccc2n(-c2ccc(OCC3CCCO3)cc2)c1=O (stereo not drawn) [II-116]
herbicidal effects on Abutilon theophrasti medicus [1]: 4 | herbicidal effects on Amaranthus viridis L. (Amaranthus viridis L.): 5 | herbicidal effects on Echinochloa crus-galli (L.) P. Beauv. var. crus-galli [2]: 4 | Herbicidal effects index, Echinochloa oryzicola Vasing [3]: 5 | Herbicidal effects index, Scirpus juncoides Roxb. var. ohwianus. T. Koyama [4]: 5 | Herbicidal effects index, Monochoria vaginalis (Burm. f.) Presl var. plantaginea (Roxb.) Solms-Laub. [5]: 5

CSc1cccc(-n2c(=O)c(C(=O)C3=C(O)CCCC3=O)nc3ccccc32)c1 [II-121]
herbicidal effects on Abutilon theophrasti medicus [1]: 4 | herbicidal effects on Amaranthus viridis L. (Amaranthus viridis L.): 4 | herbicidal effects on Echinochloa crus-galli (L.) P. Beauv. var. crus-galli [2]: 4 | Herbicidal effects index, Echinochloa oryzicola Vasing [3]: 4 | Herbicidal effects index, Scirpus juncoides Roxb. var. ohwianus. T. Koyama [4]: 5 | Herbicidal effects index, Monochoria vaginalis (Burm. f.) Presl var. plantaginea (Roxb.) Solms-Laub. [5]: 5

CS(=O)(=O)c1cccc(-n2c(=O)c(C(=O)C3=C(O)CCCC3=O)nc3ccccc32)c1 [II-124]
herbicidal effects on Abutilon theophrasti medicus [1]: 4 | herbicidal effects on Amaranthus viridis L. (Amaranthus viridis L.): 5 | herbicidal effects on Echinochloa crus-galli (L.) P. Beauv. var. crus-galli [2]: 5 | Herbicidal effects index, Echinochloa oryzicola Vasing [3]: 4 | Herbicidal effects index, Scirpus juncoides Roxb. var. ohwianus. T. Koyama [4]: 5 | Herbicidal effects index, Monochoria vaginalis (Burm. f.) Presl var. plantaginea (Roxb.) Solms-Laub. [5]: 5

COc1ccc(-n2c(=O)c(C(=O)C3=C(O)CCCC3=O)nc3ccccc32)cc1F [II-178]
herbicidal effects on Abutilon theophrasti medicus [1]: 5 | herbicidal effects on Amaranthus viridis L. (Amaranthus viridis L.): 5 | herbicidal effects on Echinochloa crus-galli (L.) P. Beauv. var. crus-galli [2]: 5 | Herbicidal effects index, Echinochloa oryzicola Vasing [3]: 4 | Herbicidal effects index, Scirpus juncoides Roxb. var. ohwianus. T. Koyama [4]: 5 | Herbicidal effects index, Monochoria vaginalis (Burm. f.) Presl var. plantaginea (Roxb.) Solms-Laub. [5]: 5

COc1ccc(-n2c(=O)c(C(=O)C3=C(O)CCCC3=O)nc3cccc(Cl)c32)cc1 [II-197]
herbicidal effects on Abutilon theophrasti medicus [1]: 4 | herbicidal effects on Amaranthus viridis L. (Amaranthus viridis L.): 5 | herbicidal effects on Echinochloa crus-galli (L.) P. Beauv. var. crus-galli [2]: 5 | Herbicidal effects index, Echinochloa oryzicola Vasing [3]: 5 | Herbicidal effects index, Scirpus juncoides Roxb. var. ohwianus. T. Koyama [4]: 5 | Herbicidal effects index, Monochoria vaginalis (Burm. f.) Presl var. plantaginea (Roxb.) Solms-Laub. [5]: 5

CN(C)c1ccc(-n2c(=O)c(C(=O)C3=C(O)CCCC3=O)nc3ccccc32)cc1 [II-210]
herbicidal effects on Abutilon theophrasti medicus [1]: 5 | herbicidal effects on Amaranthus viridis L. (Amaranthus viridis L.): 5 | herbicidal effects on Echinochloa crus-galli (L.) P. Beauv. var. crus-galli [2]: 4 | Herbicidal effects index, Echinochloa oryzicola Vasing [3]: 5 | Herbicidal effects index, Scirpus juncoides Roxb. var. ohwianus. T. Koyama [4]: 5 | Herbicidal effects index, Monochoria vaginalis (Burm. f.) Presl var. plantaginea (Roxb.) Solms-Laub. [5]: 5

Cc1cc(-n2c(=O)c(C(=O)C3=C(O)CCCC3=O)nc3ccccc32)ccc1F [II-214]
herbicidal effects on Abutilon theophrasti medicus [1]: 5 | herbicidal effects on Amaranthus viridis L. (Amaranthus viridis L.): 5 | herbicidal effects on Echinochloa crus-galli (L.) P. Beauv. var. crus-galli [2]: 5 | Herbicidal effects index, Echinochloa oryzicola Vasing [3]: 5 | Herbicidal effects index, Scirpus juncoides Roxb. var. ohwianus. T. Koyama [4]: 5 | Herbicidal effects index, Monochoria vaginalis (Burm. f.) Presl var. plantaginea (Roxb.) Solms-Laub. [5]: 5

Reference: patent US8389523B2, “Substituted quinoxaline and an agrochemical composition thereof” (Kumiai Chemical Industry Co., Ltd., priority 2007, dated 2013)
